Entries after “also recorded” stand apart in the source; their conditions may differ. Read-outs that look alike come from different tables or passages of the source.
Assays:
[1] = target: A1 adenosine receptor; conditions: Table II; cited from earlier work
[2] = target: A2a adenosine receptor; conditions: Table II; cited from earlier work
[3] = target: A3 adenosine receptor; conditions: cited from earlier work
[4] = system: cultured chick ventricular myocytes; assay: Simulated ischemia (hypoxia and glucose deprivation) injury in cultured ventricular myocytes, percentage of cells killed; format: cell-based; conditions: for number of cells killed; agent present during prolonged ischemia after MLA pretreatment vs vehicle pretreatment: MLA 300 ng/ml for 4 h, 24 h prior, agent present during 90 min simulated ischemia; for percentage of myocytes killed; preconditioning effect of the agent after MLA pretreatment vs vehicle pretreatment: MLA (30 or 300 ng/ml) 24 h prior to 5 min exposure to the agent, 10 min agent-free, then 90 min simulated ischemia
Description: Ventricular cells were cultured from chick embryos 14 days in ovo (Spafas Inc., Storrs, Conn.) as previously described (16, 23). Cells were cultivated in a humidified 5% CO2 -95% air mixture at 37 C. […] The medium was changed to a HEPES-buffered medium containing (mM) 139 NaCl, 4.7 KCl, 0.5 MgCl2, 0.9 CaCl2, 5 HEPES (N-2-hydroxyethylpiperazine-N'-2-ethanesulfonic acid) and 2% fetal bovine serum, pH 7.4, 37 C. before exposing the myocytes to the various conditions at 37 C. Control myocytes were maintained in HEPES-buffered medium under room air. Hypoxia and glucose deprivation were used to induce and simulate ischemia in the cultured cells. Hypoxia was produced by placing the cells in a hypoxic incubator (NuAire) where O2 was replaced by N2 as previously described (16,23).
The extent of hypoxia-induced injury to the ventricular cell was quantitatively determined by the percentages of cells killed. To quantitate the % of cells killed, cells were exposed to a trypsin-EDTA Hanks' balanced salt solution for 10 minutes for detachment after the various treatment, followed by centrifugation (300×g for 10 minutes) and resuspension in culture media for counting in a hemocytometer. Only live cells sedimented and the cells counted represented those that survived (46). None of the sedimented cells subsequently counted included trypan blue. […] There was no protein in the culture media following a second 300×g centrifugation of resuspended cells previously treated with trypsin-EDTA.
The percentage of cells killed was calculated as the number of cells obtained from the control group (representing cells not subjected to any hypoxia or drug treatment) minus the number of cells from the treatment group divided by number of cells in control group multiplied by 100%. […]
In this experiment, myocytes were treated with either the vehicle (0.04% propylene glycol, 0.01% ethyl alcohol) or MLA 24 hours prior to a 5 minute exposure to 10 μM adenosine. Adenosine was removed by replacement of the culture medium with adenosine-free medium, and the cells were exposed to normal room air O2 for 10 minutes, followed by 90 minutes of simulated ischemia treatment.
The experimental protocol utilized in these studies entailed pretreatment of myocytes with MLA for a 4 hour period 24 hours prior to exposure of the cardiac myocytes to 90 minutes of simulated ischemia. During this 90 minute simulated ischemia period, several cardioprotective agents were administered individually to cells and their protective effects were assessed.
Additional experiments were performed to assess the differences in cardioprotection observed when MLA was administered as the second cardioprotective agent and an adenosine agonist, KATP channel opener or protein kinase C activator was administered as the first cardioprotective agent. The experiments were performed as follows: Cardiac myocytes were exposed to the first cardioprotective agent for 5 minutes and the agent was removed. Cells were then exposed to a period of simulated ischemia in the presence or absence of 300 ng/ml of MLA. The percentage of cells killed by simulated ischemia alone was 27±2% (n=9) in the absence of any treatment with any cardioprotective agent. When MLA was present during the simulated ischemia, the percentage of cells killed was reduced from 27±2% to 14±1.2%. When cells were exposed to 5 minutes of 10 μM pinacidil, a KATP channel opener followed by exposure to simulated ischemia (in the absence of MLA), the percentage of cells killed was 12.3±1. When the pinacidil-treated cells were exposed to simulated ischemia in the presence of MLA, the percentage of cells killed was reduced from 12.3±1% to 6.3±1.2% (n=3). When cells were exposed to 5 minutes of 1 μM PMA, a PKC activator, followed by exposure to simulated ischemia (in the absence of MLA), the percentage of cells killed was 14±1. […]

[5] = system: Rat Brain A1 and A2 -Receptors; conditions: radioligand binding, Table I; cited from earlier work
[6] = target: A2; conditions: table of Compound 8; cited from earlier work
[7] = 5 min exposure to first agent (10 μM pinacidil, 1 μM PMA or 10 μM adenosine), removed, then simulated ischemia in the absence of MLA
[8] = 5 min exposure to first agent (10 μM pinacidil, 1 μM PMA or 10 μM adenosine), removed, then simulated ischemia in the presence of 300 ng/ml MLA

## CCNC(=O)[C@H]1O[C@@H](n2cnc3c(NC(=O)Nc4ccccc4C(F)(F)F)ncnc32)[C@H](O)[C@@H]1O [Compound 4d, N^6-((2-trifluoromethyl)carbamoyl)adenosine-5'uronamide]
[1]
  Ki: 384 nM
[2]
  Ki: > 10000 nM
[3]; Table II
  Ki: 54 nM

## CC(N/C(=N\C#N)Nc1ccncc1)C(C)(C)C (centres unmarked) [pinacidil]
[4]; [7]
  percentage of cells killed: 12.3±1%
[4]; [8]
  percentage of cells killed: 6.3±1.2%
[4]
  number of cells killed; agent present during prolonged ischemia after MLA pretreatment vs vehicle pretreatment: greater reduction in the number of cells killed
  percentage of myocytes killed; preconditioning effect of the agent after MLA pretreatment vs vehicle pretreatment: enhanced the preconditioning response mediated by pinacidil

## Nc1ncnc2c1ncn2[C@@H]1O[C@H](CO)[C@@H](O)[C@H]1O [adenosine]
[4]; [7]
  percentage of cells killed: 12±1.4%
[4]; [8]
  percentage of cells killed: 7.4±1.2%
[4]
  percentage of myocytes killed; preconditioning effect of the agent after MLA pretreatment vs vehicle pretreatment: significantly decreased the percentage of myocytes killed

## Cn1c(=O)c2c(nc(/C=C/c3cccc(N(C(=O)OC(C)(C)C)C(=O)OC(C)(C)C)c3)n2C)n(C)c1=O [compound 26]
[5]
  A1 /A2 ratio: 15

## CCNC(=O)[C@H]1O[C@@H](n2cnc3c(NC(=O)Nc4cccc(I)c4)ncnc32)[C@H](O)[C@@H]1O [Compound 4q, N^6-((3-iodophenyl)carbamoyl)adenosine-5'uronamide]
[2]
  Ki: 3940 nM
[3]; Table II
  Ki: 30 nM

## Cn1c(=O)c2c(nc(/C=C/c3cccc([N+](=O)[O-])c3)n2C)n(C)c1=O [21b]
[5]
  A1 /A2 ratio: 11

## COc1cc(/C=C/c2nc3c(c(=O)n(C)c(=O)n3C)n2C)cc(OC)c1OC/C=C/CNC(=O)OC(C)(C)C [compound 42]
[5]
  A1 /A2 ratio: > 40

## NCCNC(=O)Cc1ccc(NC(=O)Cc2ccc(Nc3ncnc4c3ncn4[C@@H]3O[C@H](CO)[C@@H](O)[C@H]3O)cc2)cc1 [Compound 8]
[3]; table of Compound 8
  Ki: 4 nM
[6]
  Ki: 210 nM

## CNC(=O)[C@H]1O[C@@H](n2cnc3c(NOc4ccccc4)ncnc32)[C@H](O)[C@@H]1O [Compound 11, 6-(O-Phenylhydroxylamino)purine-9-beta-ribofuranoside-5'-N-methyluronamide]
[1]
  Ki: 2060 nM
[2]
  Ki: 66300 nM
[3]; Table II
  Ki: 1340 nM

## COc1cc(/C=C/c2nc3c(c(=O)n(C)c(=O)n3C)n2C)cc(OC)c1OC/C=C/CN [compound 40]
[5]
  A1 /A2 ratio: 28

## COc1cc(/C=C/c2nc3c(c(=O)n(C)c(=O)n3C)n2C)cc(OC)c1OC/C=C/CNC(C)=O [compound 41]
[5]
  A1 /A2 ratio: > 50

## Cn1c(=O)c2c(nc(/C=C/c3cccc(F)c3)n2C)n(C)c1=O [27b]
[5]
  A1 /A2 ratio: 190

## CCNC(=O)[C@H]1O[C@@H](n2cnc3c(NC4CCCCC4)ncnc32)[C@H](O)[C@@H]1O [N^6 -cyclohexyl NECA, N6-cyclohexyl 5'-N-ethylcarboxamidoadenosine]
[1]
  Ki: 0.43 nM
[2]
  Ki: 170 nM
[3]; Table II
  Ki: 16 nM

## COc1cccc(/C=C/c2nc3c(c(=O)n(C)c(=O)n3C)n2C)c1 [19b]
[5]
  A1 /A2 ratio: 64

## Monophosphoryl lipid A [MLA]
[4]; 300 ng/ml MLA present during simulated ischemia, no first agent, untreated 27±2%
  percentage of cells killed: 14±1.2%
[4]; MLA 30 and 300 ng/ml for 4 h, 24 h prior to 90 min simulated ischemia, vs untreated, p<0.01
  percentage of cell death in response to prolonged ischemia: significantly lowered the percentage of cell death
[4]; MLA 4 h pretreatment, 24 h later 5 min preconditioning ischemia, 10 min recovery, 90 min simulated ischemia
  percentage of cells killed during prolonged ischemia after preconditioning ischemia: dose-dependent reduction in the percentage of cells killed

## CCCCCCCCCCCCCC(=O)O[C@@H]1[C@@H](C)[C@@]2(O)[C@@H](C=C(CO)C[C@]3(O)C(=O)C(C)=C[C@@H]23)[C@@H]2C(C)(C)[C@]12OC(C)=O [PMA, Phorbol 12-myristate 13-acetate]
[4]; [7]
  percentage of cells killed: 14±1%
[4]; [8]
  percentage of cells killed: 10.5±1%
[4]
  percentage of myocytes killed; preconditioning effect of the agent after MLA pretreatment vs vehicle pretreatment: enhanced by pretreatment with MLA

## COc1cc(/C=C/c2nc3c([nH]2)c(=O)n(C)c(=O)n3C)cc(OC)c1 [33a]
[5]
  A1 /A2 ratio: 25

## COc1cc(/C=C/c2nc3c(c(=O)n(C)c(=O)n3C)n2C)cc(OC)c1O [compound 35]
[5]
  A1 /A2 ratio: 19

## COc1ccccc1/C=C/c1nc2c(c(=O)n(C)c(=O)n2C)n1C [17b]
[5]
  A1 /A2 ratio: 18

## COc1cc(/C=C/c2nc3c(c(=O)n(C)c(=O)n3C)n2C)cc(OC)c1 [33b]
[5]
  A1 /A2 ratio: > 200

## COc1cc(/C=C/c2nc3c(c(=O)n(C)c(=O)n3C)n2C)cc(OC)c1OCCCCN [compound 38]
[5]
  A1 /A2 ratio: 36

## COc1ccc(/C=C/c2nc3c(c(=O)n(C)c(=O)n3C)n2C)cc1OC [32b]
[5]
  A1 /A2 ratio: 70

## COc1cc(/C=C/c2nc3c(c(=O)n(C)c(=O)n3C)n2C)cc(OC)c1OCCCCNC(=O)OC(C)(C)C [compound 39]
[5]
  A1 /A2 ratio: 42

## COc1cc(/C=C/c2nc3c(c(=O)n(C)c(=O)n3C)n2C)cc(OC)c1OC [44b]
[5]
  A1 /A2 ratio: 70

## Cn1c(=O)c2c(nc(/C=C/c3cccc(NC(=O)OC(C)(C)C)c3)n2C)n(C)c1=O [compound 25]
[5]
  A1 /A2 ratio: 30

## CNC(=O)[C@H]1O[C@@H](n2cnc3c(NCc4cccc(I)c4)ncnc32)[C@H](O)[C@@H]1O [IB-MECA, N^6-(3-iodobenzyl)adenosine-5'-N-methyluronamide]
[4]
  number of cells killed; agent present during prolonged ischemia after MLA pretreatment vs vehicle pretreatment: synergistic cardioprotective effect
  percentage of myocytes killed; preconditioning effect of the agent after MLA pretreatment vs vehicle pretreatment: significantly reduced the percentage of myocytes killed; also recorded: enhanced by pretreatment of myocytes with MLA

## Cn1c(=O)c2c(nc(/C=C/c3cc(F)cc(F)c3)n2C)n(C)c1=O [34b]
[5]
  A1 /A2 ratio: 230

## Cn1c(=O)c2c(nc(/C=C/c3cccc(NC(=O)CCC(=O)O)c3)n2C)n(C)c1=O [compound 24]
[5]
  A1 /A2 ratio: 250

## Cn1c(=O)c2c(nc(/C=C/c3cccc(C(F)(F)F)c3)n2C)n(C)c1=O [20b]
[5]
  A1 /A2 ratio: 25

## CC(=O)Nc1cccc(/C=C/c2nc3c(c(=O)n(C)c(=O)n3C)n2C)c1 [compound 23]
[5]
  A1 /A2 ratio: 240

## COc1ccc(/C=C/c2nc3c(c(=O)n(C)c(=O)n3C)n2C)cc1 [29b]
[5]
  A1 /A2 ratio: 44

## CCCn1c(=O)c2c(nc(/C=C/c3cc(OC)cc(OC)c3)n2C)n(CCC)c1=O [53b]
[5]
  A1 /A2 ratio: 110

## Cn1c(=O)c2c(nc(/C=C/c3cccc(N)c3)n2C)n(C)c1=O [22b]
[5]
  A1 /A2 ratio: 30

## OC[C@H]1O[C@@H](n2cnc3c(NC4CCCC4)nc(Cl)nc32)[C@H](O)[C@@H]1O [CCPA, 2-chloro-N^6-cyclopentyl-adenosine]
[4]
  number of cells killed; agent present during prolonged ischemia after MLA pretreatment vs vehicle pretreatment: greater reduction in the number of cells killed
  percentage of myocytes killed; preconditioning effect of the agent after MLA pretreatment vs vehicle pretreatment: significantly reduced the percentage of myocytes killed; also recorded: enhanced by pretreatment of myocytes with MLA

## COc1ccc(/C=C/c2nc3c(c(=O)n(C)c(=O)n3C)n2C)c(OC)c1OC [43b]
[5]
  A1 /A2 ratio: 34

## COc1cc(/C=C/c2nc3c(c(=O)n(C)c(=O)n3C)n2C)cc(OC)c1OC(C)=O [compound 36]
[5]
  A1 /A2 ratio: 93

## C=CCn1c(=O)c2c(nc(/C=C/c3cc(OC)c(OC)c(OC)c3)n2C)n(CC=C)c1=O [compound 46]
[5]
  A1 /A2 ratio: 13

Reference: patent US6329349A, “Methods for reducing ischemic injury of the heart via the sequential administration of monophosphoryl lipid A and adenosine receptor agents” (priority 2000, dated 2001)
